Experiments:
[1] = tested on: CHIKV nsP1 guanylation activity; experiment: Guanylation assay, covalent nsP1-GTP-680 formation, SDS-PAGE fluorescence; details: for effect on nsP1 guanylation activity (in words): 100 μM GTP, 100 μM SAM or both, Fig 2; for effect on nsP1 guanylation activity (in words) / ability to inhibit nsP1 guanylation (in words): 1 hour; for % of control, mean of replicates: mean of n = 3, 100 uM, given as fraction, Fig 2 data; for ability to inhibit nsP1 guanylation (in words): 100 μM of each GTP analog, Fig 4; for Average POC: mean of replicates; for Average POC / Percent of Control: 100 μM analog, Fig 4 data; for Percent of Control: single replicates, scaled guanylation
[2] = tested on: CHIKV nsP1; experiment: HTS validation potency repeatability, EC50 of GTP analogs in two independent FP runs
[3] = biological target: CHIKV nsP1 GTP binding site; experiment: FP competition assay, displacement of GTP-Bodipy by GTP and RNA cap analogs (apparent Ki / EC50); details: for Ki: read-out: Average Ki, apparent Ki, 500 nM nsP1, 10 nM GTP-Bodipy, 1 hour 25°C; for affinity for nsP1 GTP binding site / ability to compete with GTP-Bodipy (in words): FP competition, compared with GTP

Row | Structure (SMILES) | ability to inhibit nsP1 guanylation (in words) [1] | Average POC [1] | Percent of Control ([1]; 100 µM) | Geometric Mean Potency ([2]; first set of rows) | Geometric Mean Potency ([2]; second set of rows) | Ki [3] | affinity for nsP1 GTP binding site / ability to compete with GTP-Bodipy (in words) [3] | other results
1 | C[S+](CC[C@H](N)C(=O)[O-])C[C@H]1O[C@@H](n2cnc3c(N)ncnc32)[C@H](O)[C@@H]1O (some centres unmarked) [SAM, S-adenosyl methionine] | – | – | – | – | – | – | – | effect on nsP1 guanylation activity (in words) [1]: guanylation activity was maintained; % of control, mean of replicates [1]: 0.9908
2 | Nc1nc2c(ncn2[C@@H]2O[C@H](COP(=O)(O)OP(=O)(O)OP(=O)(O)O)[C@@H](O)[C@H]2O)c(=O)[nH]1 [GTP] | greatest ability to in inhibit nsP1 guanylation activity | 44.8021 | 42.0576 | 5.173 | 5.17 | 546 nM | – | effect on nsP1 guanylation activity (in words) [1]: significantly diminished guanylation activity; % of control, mean of replicates [1]: 0.417; Percent of Control ([1]; listed as GTP2, 100 µM): 51.0432; Percent of Control ([1]; listed as GTP3, 100 µM): 41.3055; EC50 ([3]; read-out: EC50 concentration of GTP, FP displacement of GTP-Bodipy, used for midpoint signal wells): 6800 nM
3 | Nc1nc2c(ncn2[C@@H]2O[C@H](COP(=O)(O)O)[C@@H](O)[C@H]2O)c(=O)[nH]1 [GMP] | least ability to inhibit guanylation | 99.8208 | 96.3413 | 3.81 | 3.81 | 133000 nM | decrease of GMP affinity was quite large | Percent of Control ([1]; listed as GMP2, 100 µM): 112.788; Percent of Control ([1]; listed as GMP3, 100 µM): 90.3332
4 | Nc1nc2c(ncn2[C@@H]2O[C@H](CO)[C@@H](O)[C@H]2O)c(=O)[nH]1 [Guanosine] | least ability to inhibit guanylation | 109.076 | 100.679 | – | – | – | not able to calculate a Ki | Percent of Control ([1]; listed as Guanosine2, 100 µM): 132.685; Percent of Control ([1]; listed as Guanosine3, 100 µM): 93.8632
5 | C[n+]1cn([C@@H]2O[C@H](COP(=O)([O-])OP(=O)(O)OP(=O)(O)OC[C@H]3O[C@@H](n4cnc5c(N)ncnc54)[C@H](O)[C@@H]3O)[C@@H](O)[C@H]2O)c2nc(N)[nH]c(=O)c21 [me^7-GpppA] | – | 75.4802 | – | 4.163 | 4.105 | 7000 nM | – | Percent of Control ([1]; listed as m7-GpppA2, 100 µM): 75.9437; Percent of Control ([1]; listed as m7-GpppA3, 100 µM): 80.9779; Percent of Control ([1]; listed as m7-GpppA, 100 µM): 69.519
6 | Nc1ncnc2c1ncn2[C@@H]1O[C@H](COP(=O)(O)OP(=O)(O)OP(=O)(O)O)[C@@H](O)[C@H]1O [ATP] | – | 73.0319 | 67.4851 | 4.371 | 4.429 | 3340 nM | six fold affinity reduction | Percent of Control ([1]; listed as ATP2, 100 µM): 83.2927; Percent of Control ([1]; listed as ATP3, 100 µM): 68.3179
7 | O=c1[nH]cnc2c1ncn2[C@@H]1O[C@H](COP(=O)(O)OP(=O)(O)OP(=O)(O)O)[C@@H](O)[C@H]1O [ITP] | – | 74.6508 | 92.365 | 4.642 | 4.657 | 1910 nM | moderate decrease in affinity | Percent of Control ([1]; listed as ITP2, 100 µM): 66.4533; Percent of Control ([1]; listed as ITP3, 100 µM): 65.1342
8 | Cn1c[n+]([C@@H]2O[C@H](COP(=O)(O)O)[C@@H](O)[C@H]2O)c2nc(N)[nH]c(=O)c21 [me^7-GMP] | least ability to inhibit guanylation | 102.357 | – | – | – | 21900 nM | very poor competitor | Percent of Control ([1]; listed as m7-GMP2, 100 µM): 87.9178; Percent of Control ([1]; listed as m7-GMP3, 100 µM): 97.473; Percent of Control ([1]; listed as m7-GMP, 100 µM): 121.679
9 | O=c1[nH]c(=O)c2ncn([C@@H]3O[C@H](COP(=O)(O)OP(=O)(O)OP(=O)(O)O)[C@@H](O)[C@H]3O)c2[nH]1 [XTP] | greatest ability to in inhibit nsP1 guanylation activity | 32.3662 | 34.0129 | 5.251 | 5.346 | 402 nM | slightly higher affinity compared to GTP | Percent of Control ([1]; listed as XTP2, 100 µM): 27.443; Percent of Control ([1]; listed as XTP3, 100 µM): 35.6426
10 | Nc1nc2c(ncn2[C@H]2CC[C@@H](COP(=O)(O)OP(=O)(O)OP(=O)(O)O)O2)c(=O)[nH]1 [ddGTP] | greatest ability to in inhibit nsP1 guanylation activity | 32.7576 | 32.7691 | – | – | 425 nM | binding slightly better than the others | Percent of Control ([1]; listed as ddGTP2, 100 µM): 30.4919; Percent of Control ([1]; listed as ddGTP3, 100 µM): 35.0118
11 | O=c1ccn([C@@H]2O[C@H](COP(=O)(O)OP(=O)(O)OP(=O)(O)O)[C@@H](O)[C@H]2O)c(=O)[nH]1 [UTP] | – | 59.4237 | 68.643 | 4.3046 | 4.272 | 4460 nM | markedly decreased ability to outcompete GTP-Bodipy | Percent of Control ([1]; listed as UTP2, 100 µM): 52.4244; Percent of Control ([1]; listed as UTP3, 100 µM): 57.2037
12 | Nc1nc2c(ncn2[C@@H]2O[C@H](COP(=O)(O)OP(=O)(O)OP(=O)(O)OC[C@H]3O[C@@H](n4cnc5c(N)ncnc54)[C@H](O)[C@@H]3O)[C@@H](O)[C@H]2O)c(=O)[nH]1 [GpppA] | – | 66.8805 | 57.9814 | 4.749 | 4.683 | 1890 nM | better competitor than me^7GpppA | Percent of Control ([1]; listed as GpppA2, 100 µM): 71.1847; Percent of Control ([1]; listed as GpppA3, 100 µM): 71.4754
13 | Cn1c[n+]([C@@H]2O[C@H](COP(=O)([O-])OP(=O)(O)OP(=O)(O)O)[C@@H](O)[C@H]2O)c2nc(N)[nH]c(=O)c21 [me^7-GTP] | – | 37.4013 | – | – | – | 1550 nM | able to compete for the GTP binding site | Percent of Control ([1]; listed as m7-GTP2, 100 µM): 37.3024; Percent of Control ([1]; listed as m7-GTP, 100 µM): 37.5003
